For orientation: IC50 means the concentration needed to halve the response being measured. As a reminder, the inhibition is how much of the control response was suppressed.

Series [1] concerns A549 ACE2+ cells. The settings on record: 48 h, CellTiter-Glo.
Series [2] can be described thus: in vitro. The settings on record: human, CC50, A549 ACE2+ cells, 48 h, CellTiter-Glo.
For series [3], the system named is SARS-CoV-2. Kind of series: microbe, parasite or virus in culture. It counts as cell-based. The settings on record: Severe acute respiratory syndrome coronavirus 2, Vero C1008; read-out: CPE IC50.
Series [4] has as its system SARS-CoV-2. Kind of series: qPCR readout of viral replication in Vero E6 cells. In kind it is cell-based. The conditions noted are these: Severe acute respiratory syndrome coronavirus 2, Vero C1008, viral replication by qPCR. Background: Real-time PCR tracks product formation cycle by cycle.
The target in series [5] is SARS-CoV-2 nsp13 (Severe acute respiratory syndrome coronavirus 2, UniProt P0DTD1). Put plainly: biochemical. The conditions noted are these: 1 nM nsp13, 1 mM ATP, 15 min at 37 °C; unit printed in b45 only; read-out: IC50 nsp13 helicase unwinding activity.
Series [6] relates to SARS-CoV-2. Put plainly: microbe, parasite or virus in culture. It counts as cell-based. The conditions noted are these: for IC50: read-out: IC50 (anti-viral activity).
Series [7] in a line: in vitro. The conditions noted are these: african green monkey.
In series [8] the test system is SARS-CoV-2. Kind of series: microbe, parasite or virus in culture. The conditions noted are these: Severe acute respiratory syndrome coronavirus 2, A549 ACE2+ cells, 48 h p.i., read-out: inhibition of viral titer (plaque reduction). It counts as cell-based.
In series [9] the target is T1, serine protease TMPRSS2 (Homo sapiens, UniProt O15393).
T1 construct: Axxam S.p.A. (assay provider)
Put plainly: TMPRSS2 inhibition (Axxam S.p.A. proprietary assay). In kind it is biochemical.

[10] abbreviates: Severe acute respiratory syndrome coronavirus 2, A549-ACE2, 48 h.
[11] abbreviates: ratio of CC50 over IC50, A549 ACE2+ cells.

Each structure is given as a SMILES string. Like-named read-outs stand apart in the source and are kept apart here. A value given as a limit tells only on which side of the number the result lay.

T1 sequence (O15393 whole entry): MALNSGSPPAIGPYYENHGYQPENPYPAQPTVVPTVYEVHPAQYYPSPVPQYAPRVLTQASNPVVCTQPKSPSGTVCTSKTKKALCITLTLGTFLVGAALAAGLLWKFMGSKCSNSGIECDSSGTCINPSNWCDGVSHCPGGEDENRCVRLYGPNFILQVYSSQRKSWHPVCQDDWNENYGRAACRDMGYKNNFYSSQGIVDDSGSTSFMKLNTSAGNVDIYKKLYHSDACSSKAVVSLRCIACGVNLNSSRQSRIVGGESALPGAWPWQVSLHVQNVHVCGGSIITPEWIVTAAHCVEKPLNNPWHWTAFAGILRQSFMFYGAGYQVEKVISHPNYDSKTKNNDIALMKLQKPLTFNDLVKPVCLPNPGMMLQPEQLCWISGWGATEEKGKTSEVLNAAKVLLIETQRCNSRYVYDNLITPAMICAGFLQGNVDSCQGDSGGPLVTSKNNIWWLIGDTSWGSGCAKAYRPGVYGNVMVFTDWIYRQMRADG

On to `Nc1nc(N)c2nc(CNc3ccc(C(=O)N[C@@H](CCC(=O)O)C(=O)O)cc3)cnc2n1` [Aminopterin], for which the CC50 was 2490 nM in series [1], more than 2000 nM in [2] and more than 33000 nM in [7]. In addition, the IC50 is 330 nM in [3]; 80 nM in series [4]; 2590 nM in [5]; more than 1500 nM in [6] (setting [10]); 1300 nM in [6]. Further, the “SI (selectivity index)” value in series [6] is 1.9.
On to `CN(Cc1cnc2nc(N)nc(N)c2n1)c1ccc(C(=O)N[C@@H](CCC(=O)O)C(=O)O)cc1` [Methotrexate hydrate], for which the CC50 in series [2] is 1180 nM; in series [7] it was more than 33000 nM. Further, the IC50 in series [3] was 2810 nM; in series [4], 440 nM; in series [5], 2030 nM; in series [6] (setting [10]) it was 630 nM; in series [9], more than 30000 nM. In addition, the inhibition at 1.25 µM in [8] (1.25 µM) came to 94%. In series [8] (2.5 µM), the inhibition at 2.5 µM was 98%.
As to `Nc1nc2[nH]cc(CCc3ccc(C(=O)N[C@@H](CCC(=O)O)C(=O)O)cc3)c2c(=O)[nH]1` [Pemetrexed disodium heptahydrate], the CC50 is 2430 nM in [1] and more than 2000 nM in series [2]. Further, the IC50 in series [6] amounted to 5000 nM.
As to `C#CCC(Cc1cnc2nc(N)nc(N)c2n1)c1ccc(C(=O)N[C@@H](CCC(=O)O)C(=O)O)cc1` (stereo partly drawn) [Pralatrexate], the CC50 is 8 nM in [2] and more than 33000 nM in [7]. Further, the IC50 was 50 nM in series [3]; 80 nM in series [4]; 140 nM in series [5]; 4 nM in series [6] (setting [10]); 450 nM in series [9]. Further, the inhibition at 0.019 µM in series [8] was 90.4%. Besides, the inhibition at 0.039 µM in [8] worked out at 96.5%. For the same molecule, the “SI (selectivity index)” value in series [6] is 2.
As for `Cc1nc2ccc(CN(C)c3ccc(C(=O)N[C@@H](CCC(=O)O)C(=O)O)s3)cc2c(=O)[nH]1` [Raltitrexed], the CC50 in [2] stood at 890 nM. In addition, in series [5], the IC50 is 3220 nM. For the same molecule, the “SI (selectivity index)” value in series [6] (setting [11]) came out at 0.2.
With `CCC(CC)COC(=O)[C@H](C)N[P@](=O)(OC[C@H]1O[C@@](C#N)(c2ccc3c(N)ncnn23)[C@H](O)[C@@H]1O)Oc1ccccc1` [Remdesivir], the half-inhibitory concentration (IC50) in series [3] came to 2740 nM; in series [4], 3200 nM. Besides, in [7], the CC50 is more than 33000 nM.
As to `COc1cc(NCc2ccc3nc(N)nc(N)c3c2C)cc(OC)c1OC` [Trimetrexate], the values for the CC50 in series [2] and in [7] were 10 nM and more than 33000 nM, respectively. The concentration for half-maximal inhibition (IC50) was 340 nM in series [3]; 80 nM in series [4]; 1560 nM in series [5]; 7 nM in series [6] (setting [10]); more than 30000 nM in [9]. Besides, the inhibition at 0.009 µM in [8] (0.009 µM) came to 86%. The inhibition at 0.019 µM in [8] is 97.5%. Further, the inhibition at 0.039 µM in [8] is 96.5%. The “SI (selectivity index)” value in [6] (setting [11]) stood at 1.4.

(Values after paper PMC10221469 (Viruses, 2023).)
